# ChEMBL document CHEMBL5257024, “Synthesis of α,β-Unsaturated Carbonyl-Based Compounds, Oxime and Oxime Ether Analogs as Potential Anticancer Agents for Overcoming Cancer Multidrug Resistance by Modulation of Efflux Pumps in Tumor Cells” (J Med Chem, 2016)
# Columns and labels:
# [1] = Cytotoxicity against human MCF-10A cells assessed as cell viability incubated for 96 hrs by MTT assay; format: toxicity, cell-based; design: concentration or dose not given beside the values; details: read-out: Activity
# [2] = system: MIA PaCa-2; experiment: Antiproliferative activity against human MIA PaCa-2 cells assessed as inhibition of cell growth incubated for 48 hrs by propidium iodide staining based fluorometer assay; format: functional; details: MIA PaCa-2, 48 h
# [3] = system: MCF7; experiment: Antiproliferative activity against human MCF7 cells assessed as inhibition of cell growth incubated for 48 hrs by propidium iodide staining based fluorometer assay; format: functional; details: MCF7, 48 h
# [4] = system: A549; experiment: Antiproliferative activity against human A549 cells assessed as inhibition of cell growth incubated for 48 hrs by propidium iodide staining based fluorometer assay; format: functional; details: A549, 48 h
# [5] = system: PANC-1; experiment: cells; details: Homo sapiens, PANC-1, 48 h
# Description: Antiproliferative activity against human PANC-1 cells assessed as inhibition of cell growth incubated for 48 hrs by propidium iodide staining based fluorometer assay
# [6] = system: HT-29; experiment: cells; details: Homo sapiens, HT-29, 48 h
# Description: Antiproliferative activity against human HT-29 cells assessed as inhibition of cell growth incubated for 48 hrs by propidium iodide staining based fluorometer assay
# [7] = system: NCI-H460; experiment: cells; details: Homo sapiens, NCI-H460, 48 h
# Description: Antiproliferative activity against human NCI-H460 cells assessed as inhibition of cell growth incubated for 48 hrs by propidium iodide staining based fluorometer assay
# [8] = system: PC-3; experiment: cells; details: Homo sapiens, PC-3, 48 h
# Description: Antiproliferative activity against human PC-3 cells assessed as inhibition of cell growth incubated for 48 hrs by propidium iodide staining based fluorometer assay
IC50 [2] [µM],IC50 [3] [µM],IC50 [4] [µM],IC50 [5] [µM],IC50 [6] [µM],IC50 [7] [µM],IC50 [8] [µM],Structure (SMILES),viability at 96 h [1] [%]
1.6,1.9,1.9,1.4,1.5,1.9,1.5,COc1ccc2c(c1)CC/C(=C\c1cc(OC)c(OC)c(OC)c1Br)C2=O,90
8.7,7.3,8.4,8.9,8.8,7.4,8.3,COc1cccc(/C=C2\COC/C(=C\c3cccc(OC)c3Cl)C2=O)c1Cl,88
9.5,9.1,10.7,10.5,10.9,10.6,10.8,COc1ccc(/C=C2\CCc3ccc(Cl)cc3C2=O)c(Cl)c1OC,94
23.7,20.4,22.6,21.3,21.2,22.2,22,COc1cc(/C=C2\CCc3ccccc3C2=O)c(Br)c(OC)c1OC,94
3,3.2,4.4,3.2,2.9,2.9,3.7,COc1ccc(/C=C2\CC(C)C/C(=C\c3ccc(OC)c(OC)c3Cl)C2=O)c(Cl)c1OC (stereo not given),94
17,17.6,15.4,17.5,15.9,14.1,18.7,COc1cccc(/C=C2\CN(Cc3ccccc3)C/C(=C\c3cccc(OC)c3Cl)C2=O)c1Cl,89
4,5.1,4.6,4.5,4.4,4.7,4.7,COc1ccc2c(c1)CC/C(=C\c1cccc(OC)c1Cl)C2=O,95
3.2,3.1,3.3,3.6,3,3.8,3.5,COc1ccc(/C=C2\CCc3c(O)cccc3C2=O)c(Cl)c1OC,91
15.5,15.4,16.2,15.6,10.3,13.9,15.7,COc1ccc(/C=C2\CN(Cc3ccccc3)C/C(=C\c3ccc(OC)c(OC)c3Cl)C2=O)c(Cl)c1OC,89
11.8,11.9,12.9,12.2,13.2,15.3,12.6,COc1ccc(/C=C2\CC(C(C)C)C/C(=C\c3ccc(OC)c(OC)c3Cl)C2=O)c(Cl)c1OC (stereo not given),87
6.7,7.2,8.8,7.4,7.1,7.9,7.2,COc1cccc(/C=C2\CCc3c(OC)ccc(OC)c3C2=O)c1Cl,98
2.6,2.9,2.6,2.2,2.1,2.5,2.5,COc1cc(/C=C2\CCC/C(=C\c3cc(OC)c(OC)c(OC)c3Br)C2=NO)c(Br)c(OC)c1OC,95
7.7,8.4,7.3,7.5,7.4,7.3,7.6,COc1cccc(/C=C2\CNC/C(=C\c3cccc(OC)c3Cl)C2=O)c1Cl,94
8.7,9,6.4,8.5,8.4,9,8.4,COc1cccc(/C=C2\CCc3c(OC)cccc3C2=O)c1Cl,93
4.6,4.3,4.1,4.9,4.2,5,4.6,COc1cc(/C=C2\COC/C(=C\c3cc(OC)c(OC)c(OC)c3Br)C2=O)c(Br)c(OC)c1OC,92
6.7,6.4,6.7,6.9,6.7,6.4,7.2,COc1cccc2c1CC/C(=C\c1ccc(OC)c(OC)c1Cl)C2=O,95
10.4,12.9,10.7,10.2,9.9,10.7,10.2,COc1cc(/C=C2\CCc3ccc(Cl)cc3C2=O)c(Br)c(OC)c1OC,90
3.9,4.1,4.3,4.3,4,3.8,4.5,COc1ccc(OC)c2c1CC/C(=C\c1ccc(OC)c(OC)c1Cl)C2=O,90

IC50 [2] [µM],IC50 [3] [µM],IC50 [4] [µM],IC50 [5] [µM],IC50 [6] [µM],IC50 [7] [µM],IC50 [8] [µM],Structure (SMILES),viability at 96 h [1] [%]
1.9,1.8,1.6,1.9,1.9,1.9,2.2,COc1cc(/C=C2\CCc3c(O)cccc3C2=O)c(Br)c(OC)c1OC,93
9.9,10.5,9.2,9.5,10.4,9.2,9.2,COc1cc2c(cc1OC)C(=O)/C(=C/c1cccc(OC)c1Cl)CC2,91
7.2,6.5,8.1,6.9,6.1,5.4,6.4,COc1cccc(/C=C2\CCC/C(=C\c3cccc(OC)c3Cl)C2=O)c1Cl,90
4.6,4.4,4,4.2,4.4,4,4.9,COc1cccc(/C=C2\CN(C)C/C(=C\c3cccc(OC)c3Cl)C2=O)c1Cl,91
9,10.9,9.1,9.9,9.2,10.9,9.3,COc1cc(/C=C2\CCc3ccc(Br)cc3C2=O)c(Br)c(OC)c1OC,92
15.2,12.9,11.1,12.4,12.9,15.2,12.6,COc1cccc(/C=C2\CCc3ccc(F)cc3C2=O)c1Cl,90
2.2,2.4,2.6,2.5,1.9,2.1,2.2,COc1ccc(OC)c2c1CC/C(=C\c1cc(OC)c(OC)c(OC)c1Br)C2=O,91
4.6,5.7,4.5,4.2,3.9,4.7,3.9,COc1cccc2c1CC/C(=C\c1cc(OC)c(OC)c(OC)c1Br)C2=O,94
8.9,10.1,8.2,8.5,9.6,8.9,10.3,COc1cc(/C=C2\CCc3ccc(F)cc3C2=O)c(Br)c(OC)c1OC,93
1.5,1.4,1.3,1.2,1.4,1.3,1.4,COc1cc(/C=C2\CCc3ccc([N+](=O)[O-])cc3C2=O)c(Br)c(OC)c1OC,88
10.6,11.1,10.3,10.8,10.5,11.1,10.4,COc1ccc(/C=C2\CCc3ccc(Br)cc3C2=O)c(Cl)c1OC,92
2.4,2.8,2.2,2.6,2.8,2.2,2,COc1cc2c(cc1OC)C(=O)/C(=C/c1cc(OC)c(OC)c(OC)c1Br)CC2,98
11.9,12.8,11.1,12.2,12,12.3,14.6,COc1cc(/C=C2\CN(Cc3ccccc3)C/C(=C\c3cc(OC)c(OC)c(OC)c3Br)C2=O)c(Br)c(OC)c1OC,91
2.3,2.6,2.9,2.1,2.7,2.6,2,COc1ccc2c(c1)CC/C(=C\c1ccc(OC)c(OC)c1Cl)C2=O,89
4.9,4.4,4.4,4.2,5.1,4.9,5.2,COc1cccc(/C=C2\CCc3c(O)cccc3C2=O)c1Cl,96
5.2,5.6,5.8,5.8,5.1,5.3,5.1,COc1ccc(/C=C2\COC/C(=C\c3ccc(OC)c(OC)c3Cl)C2=O)c(Cl)c1OC,89
27.9,26.7,25.1,27.5,28.2,25.1,28.5,COc1cccc(/C=C2\CCc3ccccc3C2=O)c1Cl,92
